Measurements as given in US9399649B2, “Compounds for treating spinal muscular atrophy” (PTC Therapeutics Inc., priority 2012, dated 2016).

Legend:
Smn protein = Smn protein assay in cultured cells (SMN HTRF); type: cell-based, human; conditions: for Smn protein expression: SMA Type 1 patient fibroblast cells, 48 hour, SMN HTRF assay, FIG. 8; for EC1.5x for Smn protein expression / maximum fold (Fold) increase of Smn protein: SMA patient fibroblast cells (GM03813), 48 hours; for EC1.5x for Smn protein expression: 7-point concentration curve, concentration producing 1.5 times Smn protein vs DMSO vehicle; for maximum fold (Fold) increase of Smn protein: 7-point concentration data, relative to vehicle control
Procedure, shortened: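 Smn protein measured by HTRF (anti-SMN d2/kryptate) in lysates of SMA patient fibroblasts after 48 h compound treatment, 7-point 3.16-fold dilutions, triplicates. The 665/620 nm ratio is blank-corrected to ΔF, then divided by the vehicle ΔF to give fold increase.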

[1] = system: human SMN1 minigene full length and Δ7 mRNA; assay: Human SMN1 minigene mRNA end-point semi-quantitative RT-PCR splicing assay in cultured cells; type: cell-based; conditions: HEK293H cells transfected with SMN1-A minigene, increasing concentrations, 7 hours, FIG. 17
Description: The RT-PCR assay is used to visualize and quantify the levels of the human SMN1 minigene full length and Δ7 mRNA in primary cells and cell lines expressing the human SMN1 minigene construct treated with a test compound.
Using the procedure for the preparation of the SMN2 minigene construct described in Biological Example 1, the SMN1 version of the minigene is generated by changing the sixth nucleotide of exon 7 (a thymine residue) of the SMN2-A minigene construct to cytosine using site directed mutagenesis. Thus, similar to the SMN2-A minigene construct, the SMN1 minigene construct has a single adenine residue inserted after nucleic residue 48 of exon 7. The SMN1 minigene construct is referred to as SMN1-A.
HEK293H cells (10,000 cells/well/199 μL) were transfected, using FuGENE-6 reagent, in a 96-well plate with 15 ng of the SMN1-A minigene reporter plasmid per well. Cells were incubated for 24 hours following transfection. Test compounds were serially diluted 3.16-fold in 100% DMSO to generate a 7-point concentration curve. A solution of test compound (1 μL, 200× in DMSO) was added to each test well. 1 μL DMSO was added to each control well. The plate was incubated for 7 hours in a cell culture incubator (37° C., 5% CO2, 100% relative humidity). The cells were then lysed in Cells-To-Ct lysis buffer and the lysates were stored at 80° C.
Two SMN spliced mRNA are generated from the SMN1 minigene. The term “SMN1 minigene FL” refers to the first spliced product containing exon 7, corresponding to full length SMN1 mRNA. The term “SMN1 minigene A7” refers to the second product lacking exon 7.
SMN minigene FL and Δ7 mRNA are amplified using the primers in Table 11. Primer SMN Forward C (SEQ ID NO. 11) hybridizes to a nucleotide sequence in exon 6 (nucleotide 43 to nucleotide 63), primer SMN Reverse A (SEQ ID NO. 2) hybridizes to a nucleotide sequence in the coding sequence of Firefly luciferase. The combination of these two oligonucleotides detects only SMN1 or SMN2 minigenes (RT-PCR) and will not detect endogenous SMN1 or SMN2 genes. Since the SMA patient cells used in Example 16 were transfected with only the human SMN1 minigene, RT-PCR can visualize and quantify only SMN1 minigene full-length and SMN1 minigene Δ7 mRNA.
To synthesize cDNA, 5 μL of lysate, 4 μL of 5× iScript reaction mix, 1 μL of reverse transcriptase, and 10 μL of water are combined and incubated 5 min at 25° C. followed by 30 min at 42° C., followed by 5 min at 85° C. The cDNA solution is stored at −20° C.
To perform endpoint PCR, 5 μL of cDNA, 0.2 μL of 100 μM forward primer, 0.2 μL of 100 μM reverse primer, and 22.5 μL of polymerase super mix are combined in a 96 well semiskirted PCR plate. PCR is carried out at the following temperatures for the indicated time: Step 1: 94° C. (2 min), Step 2: 94° C. […]

[2] = Body weight of neonatal Δ7 SMA mice; type: in vivo; conditions: neonatal SMA Δ7 homozygous knockout mice, IP QD PND 3 to PND 23, then orally BID from PND 24 until study end, FIG. 13
Protocol: The change in body weight of neonatal SMA mice is used to determine whether treatment with a test compound improves body weight.
SMA Δ7 homozygous knockout mice are dosed intraperitoneally (IP) with test compound or vehicle (100% DMSO) QD from PND 3 until the dose regimen is switched to an oral dose BID in 0.5% hydroxypropylmethyl cellulose (HPMC) with 0.1% Tween-80 at a dose 3.16-fold higher than the dose used for IP. Body weights of SMA Δ7 mice treated with test compound or vehicle and age matched heterozygous mice are recorded every day.

With `Cc1cn2cc(-c3cc4ccc(N5CCN(C)CC5)cc4c(=O)o3)nc2c(C)n1` [Cpd 65, 3-(6,8-dimethylimidazo[1,2-a]pyrazin-2-yl)-7-(4-methylpiperazin-1-yl)-1H-isochromen-1-one] the Smn protein expression (Smn protein) was “dose dependent increase in Smn protein expression”, the “EC1.5x for Smn protein expression” value (Smn protein) was “**** (an EC1.5×≦0.3 nM is indicated by four stars (****))” and the “maximum fold (Fold) increase of Smn protein” value (Smn protein) was “***** (a fold increase >1.65 is indicated by five stars (*****))”. The “SMN1 minigene FL mRNA (gel band)” value [1] was “progressively more SMN1 minigene FL mRNA”, the “SMN1 minigene Δ7 mRNA (gel band)” value [1] was “less SMN1 minigene Δ7 mRNA” and the body weight [2] was “improved compared to vehicle treated mice”.

For `Cc1cn2cc(-c3cc4ccc(N5CCN6CCC[C@H]6C5)cc4c(=O)o3)nc2c(C)n1` [Cpd 69, 3-(6,8-dimethylimidazo[1,2-a]pyrazin-2-yl)-7-[(8aS)-hexahydropyrrolo[1,2-a]pyrazin-2(1H)-yl]-1H-isochromen-1-one], the Smn protein expression (Smn protein) was “dose dependent increase in Smn protein expression”, the “EC1.5x for Smn protein expression” value (Smn protein) was “**** (an EC1.5×≦0.3 nM is indicated by four stars (****))” and the “maximum fold (Fold) increase of Smn protein” value (Smn protein) was “***** (a fold increase >1.65 is indicated by five stars (*****))”. For the same compound, the “SMN1 minigene FL mRNA (gel band)” value [1] was “progressively more SMN1 minigene FL mRNA”, the “SMN1 minigene Δ7 mRNA (gel band)” value [1] was “less SMN1 minigene Δ7 mRNA” and the body weight [2] was “improved compared to vehicle treated mice”.
